Reference: paper PMC11612460, “Development of a novel gut microphysiological system that facilitates assessment of drug absorption kinetics in gut” (Scientific Reports, 2024)

What was measured:
[1] = system: hiSIECs monolayers in gut MPS/Fluid3D-X; experiment: in vitro; details: for effect of inhibitor cocktail on apical-to-basal transport: ketoconazole 10 µM
Description: (§1) The seeding medium and culture medium of hiSIECs for LLI and ALI were obtained from FUJIFILM Corporation. hiSIECs were cultured according to the manufacturer’s instructions. Briefly, Fluid3D-X® devices were coated with Corning Matrigel GFR Basement Membrane Matrix (Corning) on the day before seeding the cells. hiSIECs were seeded onto a Fluid3D-X® device at 5.3 × 10^5 cells/MPS and incubated for 5.5 h. The seeding medium was added to the device, and cell culture was started in flow for 11 days at 20 pps 1/4 (3.8 µL/min). After one day, the seeding medium was replaced with LLI culture medium, and the medium was changed every two or three days. ALI culture was performed using the same method as the LLI culture, but the apical channel medium was removed to expose the cells to air on day 4. On day 11 after seeding, the gut MPS was used for the assay.
(§2) Eight gut chips were divided into two groups: with and without inhibitors. […] Because all steps were performed under static conditions, 200 µL of buffer was transferred from the outlet to the inlet by a micropipette before collection of each sample. Serial sampling (150 µL) was performed at following time points (0, 30, 60, 90, and 120 min) from both the donor and acceptor sides. Equal volumes of fresh buffer were added after the sample collection. At the end of the experiment (120 min), the cell lysates were collected. The concentrations of drugs and/or metabolites in the transport buffer and cells were measured by LC-MS/MS. To observe the inhibitory effects of the inhibitor on compound transport, transport experiments were performed in the presence of an inhibitor cocktail containing ketoconazole (10 µM), PSC833 (5 µM), and Ko143 (5 µM) to inhibit CYP3A4, P-gp, and BCRP.
(§3) The permeability, efflux ratio, and Fg parameters were derived as follows:
(§4) The apparent permeability coefficient (Papp, cm/s) was calculated using Eq. (1):1 [drawing 1]
(§5) where dQ/dt, MPS surface area, and C0 represent the amount of the test compound transported to the receiver compartment per unit time when the linearity of its time-dependent transport was
(§6) apparently maintained, the culture area of the gut MPS/Fluid3D-X (0.64 cm^2), and the
(§7) initial concentration of the test compound in the donor compartment.2 [drawing 2]
(§8) where Papp, basal to apical and Papp, apical to basal represent the apparent permeability coefficient in the
(§9) basolateral-to-apical and apical-to-basolateral directions, respectively.
(§10) The intestinal availability (Fg) of CYP3A substrates was calculated based on a previous report[35] using the following equation:3 [drawing 3]
(§11) where CLapical to basal (+ inhibitor) and CLapical to basal (-inhibitor) represent the transcellular transport clearance in the apical-to-basolateral direction in the presence or absence of the inhibitor, respectively.
(§12) The specimens were deproteinated with 3-times volumes of acetonitrile and centrifuged to obtain supernatants. For quantification of the drug concentration on the donor side, the specimens were further diluted 20 times with acetonitrile. Two microliters of each sample was subjected to LC–MS/MS analysis. An AB SCIEX QTRAP 5500 + mass spectrometer (Applied Biosystems, Foster City, CA) equipped with a Nexera X2 LC system (Shimadzu, Kyoto, Japan), operated in electron spray ionization mode, was used for the analysis. Chromatographic separation was performed at 40 °C on a GL Sciences Inc instrument. InertSustain C18 HP analytical column (2.1 I.D. × 100 mm, 3 μm) at a flow rate of 0.5 ml/min using the gradient method. The mobile phase consisted of 2 mmol/L ammonium acetate and 0.1% formic acid in water (mobile phase A) and 0.1% formic acid in acetonitrile (mobile phase B). […] The ion spray voltage and temperature were set at 4500 V and 600 °C, respectively.

[2] = in vitro; details: human
Description: as §1, §2, §3, §4, §5, §6, §7, §8, §9, §10, §11, §12

[3] = in vivo, human; cited from earlier work
[4] = system: hiSIECs; details: ref 20 (Shirai et al.); cited from earlier work
[5] = system: hiSIECs monolayers in gut MPS/Emulate; experiment: Permeability / donor concentration of test drugs using gut MPS/Emulate (fluidic conditions)
Description: F-hiSIEC was thawed and suspended in seeding medium according to the manufacture’s protocol. The suspension of F-hiSIEC (6.0×10^6 cells/mL, 35-40 μL/chip) was transferred to the chip and incubated at 37 °C overnight. The cells were then cultured in maintenance medium under perfusion culture conditions at a flow rate of 15 μL/hr from day1 to day 4 and 30 μL/h from day 5 to day9. Gravity wash and prime cycle were performed when necessary. Additionally, the membrane strain rate was set to 2% at a frequency of 0.15 Hz from day 3 to day 5 and to 10% from day 6 to day 9. The permeability of the test drugs was assessed on day 9.
The test drugs were added to the culture medium. The top and bottom channels of the chip were perfused with the media at a flow rate of 30 μL/h. […] Inhibitors (10μM Ketoconazole, 5μM PSC833 and 5μM Ko143) were added as a cocktail to both the channels. Media were collected from the outlet chamber at 6, 24, 30, and 48 h.

[6] = Papp, apical to basal, inhibitor (+)
[7] = Papp, apical to basal, inhibitor (-)
[8] = Papp, basal to apical, inhibitor (-), no inhibitor, mean ± SD, n = 4, deuterium-labeled compound dosed to basal side, apical pH 6.5, basal pH 7.4
[9] = with ketoconazole 10 µM, PSC833 5 µM, Ko143 5 µM (both sides)

Row | SMILES | Papp at 120 min [2, 6] [×10⁻⁶ cm/s] | Papp at 120 min [2, 7] [×10⁻⁶ cm/s] | effect of inhibitor cocktail on apical-to-basal transport ([1]; PSC833 5 µM, Ko143 5 µM) | efflux ratio at 120 min [2] | Papp at 120 min [2, 8] [×10⁻⁶ cm/s] | Papp at 120 min [2, 9] [×10⁻⁶ cm/s] | efflux ratio at 120 min [2, 9] | also measured
1 | OCc1ncc2n1-c1ccc(Cl)cc1C(c1ccccc1F)=NC2 [1-hydroxymidazolam] | – | – | – | – | – | – | – | secretion of metabolite to apical versus basal channel side ([1]; midazolam dosed apical): preferentially secreted to the apical channel side; formation of metabolite 1-hydroxymidazolam from midazolam in presence of inhibitors ([1]; midazolam dosed apical, inhibitor cocktail): decreased formation
2 | Cc1cc(=O)n(-c2ccccc2)n1C [Antipyrine] | 18.5 ± 1.2 | 20.1 ± 2.7 | not affected by the inhibitors | – | – | – | – | efflux ratio at 120 min ([2]; Efflux ratio (ER), inhibitor (+)): 0.78 ± 0.076; efflux ratio at 120 min ([2]; Efflux ratio (ER), inhibitor (-)): 0.656 ± 0.12; Papp at 120 min ([2]; Papp, basal to apical, inhibitor (+)): 14.4 ± 0.7 ×10⁻⁶ cm/s; Papp at 120 min ([2]; Papp, basal to apical, inhibitor (-)): 13.2 ± 1.1 ×10⁻⁶ cm/s
3 | Cc1ncc2n1-c1ccc(Cl)cc1C(c1ccccc1F)=NC2 [Midazolam] | – | – | increased with the addition of inhibitors | – | – | – | – | Papp at 120 min ([2]; Papp, apical to basal, inhibitor (+), inhibitor cocktail ketoconazole 10 µM, PSC833 5 µM, Ko143 5 µM, mean ± SD, n = 3): 14.4 ± 1.9 ×10⁻⁶ cm/s; Papp at 120 min ([2]; Papp, apical to basal, inhibitor (-), no inhibitor, mean ± SD, n = 4, apical pH 6.5, basal pH 7.4): 11.2 ± 0.6 ×10⁻⁶ cm/s; fraction that escaped from the gut metabolism (Fg) ([1]; from ratio of apical-to-basal transport clearance with and without inhibitor): 0.64; Fg, clinical value [3]: 0.55; Fg reported by Shirai et al. [4]: 0.74; donor concentration relative to spiked concentration ([5]; presumably adsorption to the device): almost half of the spiked concentration
4 | C=C[C@H]1C[N@@]2CC[C@H]1C[C@@H]2[C@@H](O)c1ccnc2ccc(OC)cc12 [Quinidine] | 3.88 ± 1.12 | 2.15 ± 0.33 | – | 2.02 ± 0.37 | 4.37 ± 0.15 | 4.37 ± 1.53 | 1.12 ± 0.63 | effluent concentration as percent of the corresponding inlet concentrations ([5]; at 24 h): 82%; reduction of concentration in the effluent relative to original drug solution ([5]; within the first 6 h): 29%
5 | O=C(O)c1cc(/N=N/c2ccc(S(=O)(=O)Nc3ccccn3)cc2)ccc1O [Sulfasalazine] | 0.557 ± 0.095 | 0.505 ± 0.072 | – | 12.7 ± 2.3 | 6.44 ± 0.45 | 1.1 ± 0.29 | 1.97 ± 0.76 | decrease in intrinsic clearance (directional transport) in the presence of transporter inhibitors ([1]; inhibitor cocktail ketoconazole 10 µM, PSC833 5 µM, Ko143 5 µM): 85%
